Assay results published in US9566307B2, “Pharmaceutical composition” (priority 2012, dated 2017).
Residues, ends and D or L forms follow the SMILES beside them. *: point of attachment. Cbz = O=C(OCc1ccccc1)*; CH2F = FC*

Key:
[1] = system: TE8 tumor indicating a resistivity against CDDP; experiment: In vivo antitumor effect of EV4 type to CDDP resistant tumor, tumor volume; set-up: species or system nude mouse; conditions: CDDP administered group, 125 μg/administration in abdominal cavity on second day; FIG. 10
Experimental: The tumor refraction performance of EV4 type to a TE8 bearing nude mouse indicating a resistivity against CDDP (also called cisplatin) utilized in chemotherapies for esophageal cancer was examined. A nude mouse was inoculated with TE8 like the fifth example (0th day), and when it was confirmed that the tumor major axis became equal to or greater than 4 mm, CDDP dissolved in a normal saline solution was administered in an abdominal cavity at 125 μg/administration (second day). Note that for a non-treated group, the same amount of normal saline solution was administered. Eight days after the inoculation of TE8, furthermore, an EV4 type solution suspended in OPTI-MEM I of 50 μl was administered in the tumor once per a day and at a total of five times and at 1×10^7 TCID50/administration or 5×10^7 TCID50/administration. For the non-treated group and the CDDP administered group, the same amount of OPTI-MEM I was administered. The evaluation items were the tumor volume and the body weight like the fourth example.

[2] = system: T.Tn (esophageal cancer cell line); experiment: Effects of various inhibitors to cytotoxicity of EV4 type (1), microscope images; type: cell-based, human; conditions: EV4 type MOI=0.1, four days after infection, 100 μM Z-VADfmk, 25 μM LY294002, 0.1 μM PD0325901, 1.0 μM bpV, FIG. 2
Experimental: The inhibitors tested to check the effects to the cytotoxicity of EV4 type were Z-VADfmk (R&D System Corporation) as a pan-caspase inhibitor, LY294002 (Santa Cruz Biotechnology Corporation) as a PI3K inhibitor, PD0325901 (Wako Corporation) as an MEK inhibitor, and bpV (Merck Corporation) as a PTEN inhibitor.
T.Tn was disseminated in a plate with 96 wells at 1×10^4 cells/well, and the plate was left stationary under a condition of 37° C. and 5% CO2. The culture medium in the well was replaced with a culture medium added with each inhibitor so as to be 100 μl/well. As to the concentrations of the respective inhibitors, 100 μM for Z-VADfmk, 25 μM for LY294002, 0.1 μM for PD0325901, and 1.0 μM for bpV. After the culture medium was replaced, the plate was left stationary under a condition of 37° C. and 5% CO2 for one hour. After the culture medium was eliminated, 100 μl of the diluted solution of EV4 type diluted with OPTI-MEM I so as to make EV4 type to be MOI=0.1 was added to each well, and was left stationary under a condition of 37° C. and 5% CO2 for one hour. Next, the diluted solution of EV4 type was eliminated, and the RPMI culture media containing the respective inhibitors were added to respective wells, and were co-cultured. Four days after the start of co-culturing, the image of each well was picked up by an optical microscope. Note that the concentration of each inhibitor was set to be a concentration expected not showing a cytotoxicity to T.Tn.

TE8 cells = experiment: Effect of MEK inhibitor to cytotoxicity of EV4 type (2), Celltilter-Glo living cell quantitation; type: cell-based, human; conditions: EV4 type MOI=1.0, PD0325901 50-nM, 48 hours co-culturing, FIG. 3
Experimental: An effect of an MEK inhibitor PD0325901 to the cytotoxicity of EV4 type was quantitatively examined.
TE8 cells was disseminated in a plate with 96 wells at 1×10^4 cells/well, and the plate was left stationary for six hours under a condition of 37° C. and 5% CO2. The culture medium in the well was replaced with a culture medium containing a DMSO solution of PD0325901 of 50-nM. After the culture medium was replaced, the plate was left stationary for one hour under a condition of 37° C. and 5% CO2. After the culture medium was eliminated, 100 μl of EV4 type diluted solution diluted with OPTI-MEM I so as to have MOI=1.0 was added to each well, and the plate was left stationary for one hour under a condition of 37° C. and 5% CO2. For a control, a diluted solution of 100 μl containing no EV4 type was added. Next, the diluted solution was eliminated, and the culture media containing PD0325901 were added to respective wells, and were co-cultured. 48 hours after the start of co-culturing, living cells were quantitated using a Celltilter-Glo (Registered Trademark) kit of Promega corporation.

WiDr = experiment: Oxaliplatin resistance check, cell survival rate by MTS technique; type: cell-based, human; conditions: oxaliplatin 200 μM, 48 hours, FIG. 17
Experimental: (§1) In addition, in order to check the oxaliplatin resistance of, among the test-target cells, WiDr and HT29, respective cell survival rates of WiDr and HT29 after cultured for 48 hours in culture media containing oxaliplatin of a predetermined concentration were evaluated through an MTS technique.

HT29 = experiment: as above; type: cell-based, human; conditions: HT29, oxaliplatin 100 μM, 48 hours; FIG. 17
Experimental: as §1

Row | Compound | Effect of inhibitor on the cytotoxicity by EV4 type [2] | also measured
1 | [NH2][Pt]([NH2])([Cl])[Cl] [CDDP, cisplatin] | – | Tumor volume, change with time [1]: suppression of the increase of the tumor volume for eight days, but the increase of the tumor volume was observed thereafter
2 | O=c1cc(N2CCOCC2)oc2c(-c3ccccc3)cccc12 [LY294002] | enhanced | –
3 | O=C(NOC[C@H](O)CO)c1ccc(F)c(F)c1Nc1ccc(I)cc1F [PD0325901] | enhanced | Effect of inhibitor on the cytotoxicity of EV4 type (cell survival rate) (TE8 cells): significantly enhanced
4 | COC(=O)C[C@H](NC(=O)[C@H](C)NC(=O)[C@@H](NC(=O)OCc1ccccc1)C(C)C)C(=O)CF [Z-VADfmk] (Cbz-Val-Ala-Asp(OMe)-CH2F) | reduced | –
5 | O=C1[O][Pt]2([NH][C@@H]3CCCC[C@H]3[NH]2)[O]C1=O [oxaliplatin] | – | Cell survival rate (WiDr): maintained the similar level of cell survival rate to those of the control group; Cell survival rate (HT29): maintained the similar level of cell survival rate to those of the control group
6 | bpV | reduced | –
